Experimental data: patent US7629140B2, “Assay for cytochrome P450 isoform 2C9” (Istituto di Richerche di Biologia Molecolare P. Angeletti …, priority 2004, dated 2009)

Key:
CYP2C9 [1] = molecular target: T1, CYP2C9 (Homo sapiens, UniProt P11712); assay: in vitro
Description: (§1) Radiometric CYP2C9 assays using [4′-^3H]-diclofenac. […] (Woburn, Mass.). Inhibitors were added to the reaction mixture from stock solutions in DMSO/acetonitrile/water (35:25:40, v/v), giving final solvent concentrations of 0.7% DMSO and 0.5% acetonitrile. No inhibitor controls contained an equivalent amount of vehicle. Following preincubation for 10 minutes at 37° C., reactions were started by addition of 1 mM NADPH and an NADPH regenerating system containing 5 mM glucose-6-phosphate, 3 mM MgCl2, and 1 U/mL glucose-6-phosphate dehydrogenase. Assays were conducted for 10 minutes at 37° C. and stopped by addition of HCl to a final concentration of 0.1 N. Plates were then centrifuged for 10 minutes in a microplate rotor and supernatants loaded into the wells of a preconditioned 10 mg OASIS 96-well HLB plate. OASIS HLB 96 well extraction plates and vacuum manifold are available from Waters Corp., Newcastle, Del. Vacuum was applied and the void volume collected in the collection plate. Then, 75 μL of water was added, vacuum was applied again, and the wash was collected into the same plate. Pooled void volume and water wash were transferred into scintillation vials and counted in a beta-scintillation counter. Alternatively, aliquots were counted in 24- or 96-well scintillation plates using a TOPCOUNT scintillation counter (Packard, Perkin Elmer, Boston, Mass.). For the calculation of enzyme activity, product counts were corrected by subtraction of counts obtained in control incubations performed in the absence of NADPH regenerating system.
Quantification of 4′hydroxydiclofenac. Aliquots of the assay reaction mixture and of metabolite standard curves were analyzed by HPLC using an Agilent HP1100 liquid chromatograph (Agilent Technologies) equipped with a CTC Analytics PAL Autosampler (HTS PAL; CTC Analytics AG, Switzerland). Chromatography was performed on a XTERRA MS C18 column (4.6 mm×5 cm; 5 μm; Waters Corp., Medford, Mass.) at a flow rate of 2 mL/min, using a mobile phase consisting of a mixture of 0.1% formic acid in water (A) and 0.1% formic acid in acetonitrile (B) (linear gradient 0 to 0.5 min, 10% B; 3.0 min 90% B, 3.5 min 90% B, 3.6 min 10% B; the system was equilibrated for 1.4 minutes at 10% B prior to the next injection). The eluate was diverted to waste for the first minute, and then to a Sciex API-3000 triple quadruple mass spectrometer (available, for example, from Perkin Elmer, Boston, Mass.) with a Turbo Ionspray ionization source operated in the positive ion mode. […] Metabolite concentrations were determined by weighted linear least-squares regression analysis, using Analyst Quantitation Wizard software version 1.2 (Applied Biosystems, Foster City, Calif.).
To compare IC50 values of several known CYP2C9 inhibitors obtained in the radiometric assay with those obtained by conventional HPLC-mass spectrometric assay, reactions were performed in the absence or presence of different concentrations of known inhibitors. Tritiated water formation and formation of unlabelled reaction product 4′OH-diclofenac were determined in the same reaction mixture. The 4′-OH-diclofenac was quantified by HPLC coupled to triple quadruple mass spectrometric analysis.

CYP2C9 [2] = molecular target: T1, CYP2C9; assay: Radiometric CYP2C9 assay using [4′-3H]-diclofenac: formation of [3H]-H2O in pooled human liver microsomes
Description: as §1
Calculation of the apparent rate of formation of unlabelled product from tracer competition experiments. When assays are performed using a fixed amount of [4′-^3H]-diclofenac and varying concentrations of unlabelled diclofenac, the velocity of formation of unlabelled product, v, is given by: v=v*/SAP equation 3 where v* is the velocity of formation of tritiated water. Substituting from equation 2, we obtain: v=v*x(^TV/K)/SA0 equation 4 Defining v′ as the velocity of formation of unlabelled product divided by the kinetic isotope effect, i.e. v′=v/(^TV/K) equation 5 we obtain v′=v*/SA0 equation 6 Without using the known ^TV/K ratio (which would be tautological, since it was derived from SAP), v′, the apparent formation rate of unlabelled product, can be calculated. When plotted against the substrate concentration, S, and fitted to the Hill equation (equation 7), V′max, S50, the substrate concentration at 50%, and n, the Hill coefficient, can be derived.

CYP2C9 [3] = molecular target: T1, CYP2C9; details: sulfaphenazole at 10 μM, 10 μM unlabelled diclofenac, FIG. 12
CYP2C9 [4] = molecular target: T1, CYP2C9; details: Cohen et al.; cited from earlier work

T1 sequence (P11712 whole entry): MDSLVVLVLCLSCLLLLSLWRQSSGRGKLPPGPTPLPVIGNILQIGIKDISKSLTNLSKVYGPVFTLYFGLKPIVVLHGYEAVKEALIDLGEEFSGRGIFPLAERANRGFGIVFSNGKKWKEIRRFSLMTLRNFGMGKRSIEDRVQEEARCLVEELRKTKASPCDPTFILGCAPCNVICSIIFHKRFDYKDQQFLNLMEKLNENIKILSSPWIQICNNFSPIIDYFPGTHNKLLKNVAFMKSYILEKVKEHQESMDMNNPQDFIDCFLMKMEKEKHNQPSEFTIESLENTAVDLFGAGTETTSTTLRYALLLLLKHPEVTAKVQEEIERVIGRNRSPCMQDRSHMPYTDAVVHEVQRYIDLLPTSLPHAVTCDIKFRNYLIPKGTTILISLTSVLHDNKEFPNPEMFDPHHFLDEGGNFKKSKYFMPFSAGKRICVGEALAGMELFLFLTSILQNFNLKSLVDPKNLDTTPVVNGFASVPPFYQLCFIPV

SMILES: CC(=O)C[C@@H](c1ccccc1)c1c(O)c2ccccc2oc1=O [S-Warfarin]
- IC50 (CYP2C9 [1]; read-out: IC50 (μM) Conventional, HLM, formation rate of 4′-hydroxydiclofenac by LC-MS/MS, same reaction mixture, mean ± SEM, n = 2): 8.7 ± 3.6 µM
- IC50 (CYP2C9 [2]; read-out: IC50 (μM) radiometric, HLM, formation rate of [3H]-H2O from [4′-3H]-diclofenac, mean ± SEM, n = 2): 14.6 ± 2.3 µM

SMILES: CC(=O)[C@H]1CC[C@H]2[C@@H]3CCC4=CC(=O)CC[C@]4(C)[C@H]3CC[C@]12C [Progesterone]
- IC50 (CYP2C9 [1]): 20 ± 4.6 µM
- IC50 (CYP2C9 [2]): 25.2 ± 3.1 µM
- Ratio (radiometric/conventional) (CYP2C9 [2]): 1.26

SMILES: COc1ccc2c(c1)c(CC(=O)O)c(C)n2C(=O)c1ccc(Cl)cc1 [Indomethacin]
- IC50 (CYP2C9 [1]): 57 ± 10.5 µM
- IC50 (CYP2C9 [2]): 54.8 ± 8.1 µM
- Ratio (radiometric/conventional) (CYP2C9 [2]): 0.96

SMILES: Nc1ccc(S(=O)(=O)Nc2ccnn2-c2ccccc2)cc1 [Sulfaphenazole]
- effect on formation of tritiated water from [4′-3H]diclofenac in human hepatocytes (in words) (CYP2C9 [3]): almost totally inhibited
- Ratio (radiometric/conventional) (CYP2C9 [2]): 0.96
- effect on NADPH-dependent formation of tritiated water from [4′-3H]-diclofenac in HLM (in words) (CYP2C9 [2]; human, microsomes): inhibited

SMILES: Cc1nc2c([nH]1)c(=O)n(C)c(=O)n2Cc1ccco1 [furafylline]
- effect on NADPH-dependent formation of tritiated water from [4′-3H]-diclofenac in HLM (in words) (CYP2C9 [2]; human, microsomes): none of these agents significantly affected

SMILES: Cc1ccc(C)c(OCCCC(C)(C)C(=O)O)c1 [Gemfibrozil]
- IC50 (CYP2C9 [1]): 39.1 ± 7.1 µM
- IC50 (CYP2C9 [2]): 27.7 ± 6.9 µM
- Ratio (radiometric/conventional) (CYP2C9 [2]): 0.71

SMILES: COCC(=O)O[C@]1(CCN(C)CCCc2nc3ccccc3[nH]2)CCc2cc(F)ccc2[C@@H]1C(C)C [Mibefradil]
- IC50 (CYP2C9 [1]): 57.6 ± 9.9 µM
- IC50 (CYP2C9 [2]): 40 ± 5 µM
- Ratio (radiometric/conventional) (CYP2C9 [2]): 0.69

SMILES: COc1ccc2[nH]c([S+]([O-])Cc3ncc(C)c(OC)c3C)nc2c1 (centres unmarked) [Omeprazole]
- IC50 (CYP2C9 [1]): 42.3 ± 15.3 µM
- IC50 (CYP2C9 [2]): 43.8 ± 10.4 µM
- Ratio (radiometric/conventional) (CYP2C9 [2]): 1.04

SMILES: O=C(O)Cc1ccccc1Nc1c(Cl)cccc1Cl [diclofenac]
- Hill coefficient of 4′-hydroxydiclofenac formation (CYP2C9 [1]; human, 10 min, pH 7.6): 1.1±0.1
- Km at 10 min (CYP2C9 [1]; human, microsomes, pH 7.6): 6.2 ± 0.9 µM
- Km (CYP2C9 [1]; human, pH 7.6): ~6 µM
- ratio between V′max and Vmax (CYP2C9 [2]): 0.9
- Hill coefficient n (v′ vs. S) (CYP2C9 [2]; human, 10 min, pH 7.6): 1.15±0.05
- V′max (apparent maximal rate of product formation) (CYP2C9 [2]; human, 10 min, pH 7.6): 1.5 ± 0.1 nmol/min/mg
- Km at 10 min (CYP2C9 [2]; human, microsomes, pH 7.6): 6.8 ± 1 µM

SMILES: CCCCC1C(=O)N(c2ccccc2)N(c2ccccc2)C1=O [Phenylbutazone]
- IC50 (CYP2C9 [1]): 44.2 ± 2.2 µM
- IC50 (CYP2C9 [2]): 41.4 ± 6.5 µM
- Ratio (radiometric/conventional) (CYP2C9 [2]): 0.94

SMILES: Clc1ccc(COC(Cn2ccnc2)c2ccc(Cl)cc2Cl)c(Cl)c1 (centres unmarked) [Miconazole]
- IC50 (CYP2C9 [1]): 0.13 ± 0.03 µM
- IC50 (CYP2C9 [2]): 0.2 ± 0.02 µM
- Ratio (radiometric/conventional) (CYP2C9 [2]): 1.54

SMILES: CC(=O)CC(c1ccccc1)c1c(O)c2ccccc2oc1=O (centres unmarked) [warfarin]
- inhibitor of CYP2C9 when probed with the fluorogenic substrate MFC (CYP2C9 [4]): not
